Data set [1] can be described thus: in vitro. The settings on record: human, pbl.
Another data set deals with Measles morbillivirus. It counts as functional.
Data set [2] has as its target Phosphatidylinositol 4-phosphate 3-kinase C2 domain-containing subunit beta (Homo sapiens, UniProt O00750). Nature of the data set: Inhibition of PIK3C2beta (unknown origin).
Data set [3] in a line: Cytotoxicity against human A549 cells. It counts as toxicity, cell-based.
Data set [4] deals with Epidermal growth factor receptor (Homo sapiens, UniProt P00533).
Another data set deals with Influenza A virus. The data set is described as follows: microbe, parasite or virus in culture. It counts as functional, organism-based.
Another data set relates to Influenza B virus. Nature of the data set: Antiviral activity against influenza B virus. It counts as functional, organism-based.
Data set [5] deals with Hepatitis C virus. The data set is described as follows: microbe, parasite or virus in culture.
A short description of data set [6]: in vitro. The settings on record: dog, MDCK cells.
A short description of data set [7]: in vitro. The settings on record: human, Huh-7 cells.
A further data set has as its system Human rhinovirus sp. The data set is described as follows: Antiviral activity against RV. It counts as functional, organism-based, Enterovirus.
Data set [8] has as its target Calcium/calmodulin-dependent protein kinase type II subunit gamma (Homo sapiens, UniProt Q13555). The data set is described as follows: Inhibition of CAMK-II (unknown origin).
Data set [9] in a line: Cytotoxicity against HMC3 cells. It counts as toxicity, cell-based. The settings on record: human.
Data set [10] has as its system Dengue virus. The data set is described as follows: microbe, parasite or virus in culture.
For data set [11], the system named is Dengue virus. The data set is described as follows: Antiviral activity against DENV infected in HEK293 cells. It counts as functional, organism-based.
The nature of data set [12]: Cytotoxicity against HEK293 cells. It counts as toxicity, cell-based. The settings on record: human.
Another data set relates to Hepatitis B virus. The data set is described as follows: microbe, parasite or virus in culture. Type of data set: functional, organism-based.
The test system of a further data set is HepG2. The data set is described as follows: Cytotoxicity against human HepG2 cells at 1 uM. It counts as toxicity, cell-based. The settings on record: hepg2, 1 µM.
The test system of another data set is Zaire ebolavirus. The data set is described as follows: microbe, parasite or virus in culture. Type of data set: functional, organism-based.
Data set [13] is described as follows: in vitro. The settings on record: human, hek-293t.
For data set [14], the system named is Hepatitis C virus. The data set is described as follows: Antiviral activity against HCV assessed as fold reduction in virus titre at 10 uM. It counts as functional, Hepacivirus hominis.
Data set [15] is described as follows: Cytotoxicity against human LU cells. It counts as toxicity, cell-based.
For the next data set, the system named is Human betaherpesvirus 5. Nature of the data set: Antiviral activity against HCMV assessed as inhibition of DNA synthesis at 10 uM relative to control. It counts as functional.

Some results are limits rather than exact numbers.

One may read the IC50 as the concentration that inhibits the measured activity by half. As usually defined, the EC50 is the midpoint of the concentration-response curve. Higher therefore signals a need for much substance. One may read the inhibition as the change of the read-out against control, counted positive when it falls.

Phosphatidylinositol 4-phosphate 3-kinase C2 domain-containing subunit beta, sequence (O00750 whole entry, the tested form may be a part): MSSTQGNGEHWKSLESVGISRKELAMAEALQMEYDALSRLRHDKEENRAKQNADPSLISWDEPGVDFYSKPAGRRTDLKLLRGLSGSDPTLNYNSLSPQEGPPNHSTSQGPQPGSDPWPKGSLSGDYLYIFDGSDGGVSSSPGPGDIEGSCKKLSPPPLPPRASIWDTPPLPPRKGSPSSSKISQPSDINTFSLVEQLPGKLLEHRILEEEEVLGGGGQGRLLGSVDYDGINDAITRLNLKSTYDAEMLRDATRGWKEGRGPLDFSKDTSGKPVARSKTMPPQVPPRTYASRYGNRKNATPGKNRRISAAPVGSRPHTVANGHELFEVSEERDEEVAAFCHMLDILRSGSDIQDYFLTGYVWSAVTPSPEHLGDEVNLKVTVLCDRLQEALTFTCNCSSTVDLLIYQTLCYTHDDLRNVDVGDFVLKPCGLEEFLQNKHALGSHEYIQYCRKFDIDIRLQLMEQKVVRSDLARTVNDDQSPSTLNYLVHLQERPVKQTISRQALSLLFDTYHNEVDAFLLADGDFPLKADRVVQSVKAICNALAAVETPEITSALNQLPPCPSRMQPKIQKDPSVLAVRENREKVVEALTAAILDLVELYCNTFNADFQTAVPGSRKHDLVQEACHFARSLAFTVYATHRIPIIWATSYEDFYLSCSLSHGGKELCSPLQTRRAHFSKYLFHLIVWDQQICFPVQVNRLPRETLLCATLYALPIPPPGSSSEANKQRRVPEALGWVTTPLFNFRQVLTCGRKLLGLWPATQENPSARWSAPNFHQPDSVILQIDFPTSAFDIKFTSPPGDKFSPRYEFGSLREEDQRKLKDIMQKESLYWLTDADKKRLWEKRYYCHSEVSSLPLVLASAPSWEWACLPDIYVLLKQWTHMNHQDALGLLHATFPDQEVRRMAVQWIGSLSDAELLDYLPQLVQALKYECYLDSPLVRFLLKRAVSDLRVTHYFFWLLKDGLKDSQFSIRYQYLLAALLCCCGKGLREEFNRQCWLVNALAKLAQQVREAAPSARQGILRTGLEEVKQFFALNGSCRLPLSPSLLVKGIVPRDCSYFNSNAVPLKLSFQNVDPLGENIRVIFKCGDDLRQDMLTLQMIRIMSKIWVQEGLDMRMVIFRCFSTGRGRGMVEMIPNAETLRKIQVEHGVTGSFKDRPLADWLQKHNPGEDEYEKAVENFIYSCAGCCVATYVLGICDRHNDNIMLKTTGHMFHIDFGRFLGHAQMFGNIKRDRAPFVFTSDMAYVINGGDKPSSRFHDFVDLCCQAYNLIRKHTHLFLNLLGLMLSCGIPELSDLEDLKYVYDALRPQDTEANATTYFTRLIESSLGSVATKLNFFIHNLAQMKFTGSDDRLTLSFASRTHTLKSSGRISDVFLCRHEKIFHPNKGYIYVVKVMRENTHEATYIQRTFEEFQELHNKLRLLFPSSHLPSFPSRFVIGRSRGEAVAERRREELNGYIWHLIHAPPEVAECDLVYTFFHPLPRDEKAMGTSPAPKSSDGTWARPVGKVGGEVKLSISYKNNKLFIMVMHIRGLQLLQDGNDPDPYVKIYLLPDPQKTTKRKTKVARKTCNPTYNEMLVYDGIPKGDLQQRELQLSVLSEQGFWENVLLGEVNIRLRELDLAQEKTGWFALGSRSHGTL
Calcium/calmodulin-dependent protein kinase type II subunit gamma, sequence (Q13555 whole entry): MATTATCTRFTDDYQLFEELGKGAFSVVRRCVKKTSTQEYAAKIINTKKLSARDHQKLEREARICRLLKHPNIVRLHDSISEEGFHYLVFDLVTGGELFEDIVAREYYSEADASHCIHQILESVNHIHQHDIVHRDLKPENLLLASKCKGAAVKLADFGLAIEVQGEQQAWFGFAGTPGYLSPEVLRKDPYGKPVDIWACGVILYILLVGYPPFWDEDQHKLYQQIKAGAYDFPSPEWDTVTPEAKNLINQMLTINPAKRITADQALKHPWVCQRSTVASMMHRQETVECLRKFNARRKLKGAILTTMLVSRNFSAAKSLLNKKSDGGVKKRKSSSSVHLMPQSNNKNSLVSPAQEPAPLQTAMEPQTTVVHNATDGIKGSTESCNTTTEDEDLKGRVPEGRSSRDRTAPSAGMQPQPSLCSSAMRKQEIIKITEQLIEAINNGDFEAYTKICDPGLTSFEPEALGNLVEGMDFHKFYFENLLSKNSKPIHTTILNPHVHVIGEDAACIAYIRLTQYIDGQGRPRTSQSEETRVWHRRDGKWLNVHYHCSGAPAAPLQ
Epidermal growth factor receptor, sequence (P00533 whole entry): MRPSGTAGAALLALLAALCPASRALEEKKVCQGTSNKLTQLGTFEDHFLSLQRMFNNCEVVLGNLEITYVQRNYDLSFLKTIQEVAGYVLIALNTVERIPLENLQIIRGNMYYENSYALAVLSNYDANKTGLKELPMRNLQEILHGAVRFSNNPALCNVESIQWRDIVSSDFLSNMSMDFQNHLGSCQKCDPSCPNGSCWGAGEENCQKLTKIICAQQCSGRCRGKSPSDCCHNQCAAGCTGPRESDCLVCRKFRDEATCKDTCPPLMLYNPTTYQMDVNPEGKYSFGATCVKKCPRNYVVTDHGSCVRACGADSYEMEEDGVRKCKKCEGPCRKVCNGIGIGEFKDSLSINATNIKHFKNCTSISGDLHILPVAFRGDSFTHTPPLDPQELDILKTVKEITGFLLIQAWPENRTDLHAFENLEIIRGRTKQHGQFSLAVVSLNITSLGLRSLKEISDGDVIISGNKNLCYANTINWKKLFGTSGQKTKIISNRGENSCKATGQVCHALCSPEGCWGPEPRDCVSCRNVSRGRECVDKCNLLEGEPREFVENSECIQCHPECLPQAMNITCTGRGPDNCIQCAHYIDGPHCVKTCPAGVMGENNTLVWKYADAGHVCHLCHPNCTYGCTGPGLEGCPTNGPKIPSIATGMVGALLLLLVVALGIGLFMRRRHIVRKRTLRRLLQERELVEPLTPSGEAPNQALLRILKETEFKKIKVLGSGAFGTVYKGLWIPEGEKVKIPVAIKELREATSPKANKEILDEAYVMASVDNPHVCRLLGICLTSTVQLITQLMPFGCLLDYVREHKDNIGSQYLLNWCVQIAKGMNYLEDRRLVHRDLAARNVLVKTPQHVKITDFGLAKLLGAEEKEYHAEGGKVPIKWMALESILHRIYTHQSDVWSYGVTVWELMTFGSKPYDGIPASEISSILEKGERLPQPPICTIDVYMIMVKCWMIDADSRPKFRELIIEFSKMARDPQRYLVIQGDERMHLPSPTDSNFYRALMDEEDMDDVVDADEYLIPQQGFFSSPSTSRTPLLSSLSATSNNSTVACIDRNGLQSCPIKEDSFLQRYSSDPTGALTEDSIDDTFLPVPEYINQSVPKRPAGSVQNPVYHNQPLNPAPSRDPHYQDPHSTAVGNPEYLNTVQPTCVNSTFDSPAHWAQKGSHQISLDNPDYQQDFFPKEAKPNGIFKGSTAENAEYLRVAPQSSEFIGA

Take `Oc1ccc(Nc2nc(-c3ccc(Cl)cc3)cs2)cc1`: the CC50 in the data set “in vitro [1]” is over 5 µM. For the same compound, the “inhibition (INH)” value with Measles morbillivirus worked out at 70%.
In the case of `O=C(Cc1cccs1)Nc1cccc(-c2ccc3nnc(-c4cccnc4)n3n2)c1`, the results for the concentration for half-maximal inhibition (IC50) in data set [2] and in data set [4] were 0.43 µM and 0.079 µM, respectively. The CC50 (in data set [3]; in “in vitro [6]”; in the data set “in vitro [7]”) was over 50 µM throughout. Besides, the concentration giving a half-maximal response (EC50) in the data set on Influenza A virus turned out to be 0.35 µM; with Influenza B virus it was 0.4 µM; with Hepatitis C virus [5], 0.76 µM; in the data set on Human rhinovirus sp. it was 0.05 µM.
As for `COc1ccc(S(=O)(=O)N(CCCC(=O)C2CCCCCC2)c2ccccc2)cc1`, in [8], the IC50 was 0.79 µM. The CC50 in data set [9] was over 12.5 µM.
Consider `O=S(=O)(NCCNC/C=C/c1ccc(Br)cc1)c1cccc2cnccc12`, for which the IC50 with Dengue virus [10] turned out to be 0.96 µM; with Dengue virus [11] it was 0.9 µM. Also, in data set [12], the CC50 is over 1 µM.
In the case of `Cc1n[nH]c2ccc(-c3cncc(OC[C@@H](N)Cc4c[nH]c5ccccc45)c3)cc12` [A-443654], the “inhibition (INH)” value in the data set on Hepatitis B virus stood at 50%. Also, the Activity result in the data set with HepG2 is “Non-Toxic”.
Consider `O=c1cc(N2CCOCC2)oc2c(-c3ccccc3)cccc12` [LY-294002], for which the midpoint of the response in the data set on Zaire ebolavirus, the EC50, lay at 1.8 µM. The compound further came in with a CC50 in the data set “in vitro [13]” of over 20 µM. Further, the “fold change (FC)” value in the data set with Hepatitis C virus [14] was determined as 5.
`Cn1cnc2c(NCc3ccccc3)nc(NCCO)nc21` [OLOMOUCINE]: the CC50 in data set [15] is over 15 µM. Moreover, the inhibition at 10 µM with Human betaherpesvirus 5 was determined as 50%.

The values are drawn from ChEMBL document CHEMBL5131375, “Recent Developments in the Use of Kinase Inhibitors for Management of Viral Infections” (J Med Chem, 2022).
